Laboratory results reported in ChEMBL document CHEMBL6153063 (Eur J Med Chem, 2025).
Activity calls are given as the source filed them. The calls are words filed in the database; no cut-off is given here.

Key:
[1] = Inhibition of cell viability in human Venetoclax-resistant MV4-11 cells overexpressing Bcl-2 incubated for 48 hrs by Alamar blue assay; type: functional, cell-based; details: Venetoclax-resistant MV4-11, 48 h
MOLM-14 [2] = test: Inhibition of cell viability in human MOLM-14 cells incubated for 48 hrs by Alamar blue assay; type: functional, cell-based; details: MOLM-14, 48 h
[3] = Inhibition of cell viability in human Gilteritinib-resistant MOLM-14 cells expressing FLT3 F691L mutant incubated for 48 hrs by Alamar blue assay; type: functional, cell-based; details: Gilteritinib-resistant MOLM-14, 48 h
MV4-11 [4] = test: Induction of apoptosis in human MV4-11 cells assessed as viable cells at 200 nM incubated for 48 hrs in presence of GIL by Annexin V/7AAD staining based flow cytometry (reference value: 95.6 %); type: functional; details: read-out: Activity
MV4-11 [5] = test: Inhibition of cell viability in human MV4-11 cells incubated for 48 hrs in presence of GIL by Alamar blue assay; details: MV4-11, 48 h
[6] = Inhibition of cell viability in human Venetoclax-resistant MV4-11 cells overexpressing Bcl-2 incubated for 48 hrs in presence of GIL by Alamar blue assay; type: functional, cell-based; details: Venetoclax-resistant MV4-11, 48 h
MOLM-14 [7] = test: Inhibition of cell viability in human MOLM-14 cells incubated for 48 hrs in presence of GIL by Alamar blue assay; type: functional, cell-based; details: MOLM-14, 48 h
[8] = Inhibition of cell viability in human Gilteritinib-resistant MOLM-14 cells expressing FLT3 F691L mutant incubated for 48 hrs in presence of GIL by Alamar blue assay; type: functional, cell-based; details: Gilteritinib-resistant MOLM-14, 48 h
MV4-11 [9] = test: Induction of apoptosis in human MV4-11 cells assessed as early apoptotic cells at 200 nM incubated for 48 hrs in presence of GIL by Annexin V/7AAD staining based flow cytometry (reference value: 2.3 %); type: functional
MV4-11 [10] = test: Induction of apoptosis in human MV4-11 cells assessed as late apoptotic cells at 200 nM incubated for 48 hrs in presence of GIL by Annexin V/7AAD staining based flow cytometry (reference value: 1.7 %); type: functional
MV4-11 [11] = test: Inhibition of cell viability in human MV4-11 cells incubated for 48 hrs by Alamar blue assay; type: functional, cell-based; details: MV4-11, 48 h
[12] = target: Apoptosis regulator Bcl-2 (Homo sapiens, UniProt P10415); test: Binding affinity to Bcl-2 (unknown origin) assessed as dissociation constant incubated for 1 hr by KINOMEscan assay
Sequence of Apoptosis regulator Bcl-2 (P10415 whole entry): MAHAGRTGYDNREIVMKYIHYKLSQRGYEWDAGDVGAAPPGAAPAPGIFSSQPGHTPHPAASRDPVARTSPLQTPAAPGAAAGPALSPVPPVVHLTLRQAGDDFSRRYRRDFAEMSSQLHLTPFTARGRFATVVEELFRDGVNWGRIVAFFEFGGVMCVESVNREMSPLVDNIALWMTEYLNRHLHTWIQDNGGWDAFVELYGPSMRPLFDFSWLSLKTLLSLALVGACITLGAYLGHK

[13] = target: T1, Receptor-type tyrosine-protein kinase FLT3 (Homo sapiens, UniProt P36888); test: Binding affinity to FLT3 (unknown origin) assessed as dissociation constant incubated for 1 hr by KINOMEscan assay
T1 sequence (P36888 whole entry): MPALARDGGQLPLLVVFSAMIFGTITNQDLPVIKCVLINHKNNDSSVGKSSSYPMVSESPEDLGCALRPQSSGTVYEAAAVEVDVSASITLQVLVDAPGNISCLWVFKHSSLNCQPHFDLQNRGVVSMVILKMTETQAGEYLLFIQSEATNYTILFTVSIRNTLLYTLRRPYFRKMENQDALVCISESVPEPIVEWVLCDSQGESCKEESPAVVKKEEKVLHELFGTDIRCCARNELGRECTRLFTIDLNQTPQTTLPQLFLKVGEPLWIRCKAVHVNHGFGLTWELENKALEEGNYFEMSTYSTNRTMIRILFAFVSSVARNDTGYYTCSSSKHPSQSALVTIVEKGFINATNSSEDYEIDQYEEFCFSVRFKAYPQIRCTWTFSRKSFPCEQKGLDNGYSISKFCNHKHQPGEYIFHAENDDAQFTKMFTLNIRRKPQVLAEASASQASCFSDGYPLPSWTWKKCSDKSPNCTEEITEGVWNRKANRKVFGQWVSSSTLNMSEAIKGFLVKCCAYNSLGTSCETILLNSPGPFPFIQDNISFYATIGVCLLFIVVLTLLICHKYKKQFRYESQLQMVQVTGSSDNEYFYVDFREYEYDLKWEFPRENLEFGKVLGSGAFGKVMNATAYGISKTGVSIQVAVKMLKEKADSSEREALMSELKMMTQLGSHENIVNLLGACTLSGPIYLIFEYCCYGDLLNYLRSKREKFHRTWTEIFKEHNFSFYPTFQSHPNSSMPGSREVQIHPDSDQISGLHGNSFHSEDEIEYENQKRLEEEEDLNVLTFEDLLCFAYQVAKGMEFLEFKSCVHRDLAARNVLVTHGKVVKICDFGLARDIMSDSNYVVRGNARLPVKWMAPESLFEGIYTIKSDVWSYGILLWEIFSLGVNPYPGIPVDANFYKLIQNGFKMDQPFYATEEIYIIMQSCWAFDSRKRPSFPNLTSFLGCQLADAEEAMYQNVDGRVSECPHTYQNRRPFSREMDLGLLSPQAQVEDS

MV4-11 [14] = test: Induction of apoptosis in human MV4-11 cells assessed as viable cells at 200 nM incubated for 48 hrs by Annexin V/7AAD staining based flow cytometry (reference value: 95.6 %); type: functional; details: read-out: Activity
MV4-11 [15] = test: Induction of apoptosis in human MV4-11 cells assessed as early apoptotic cells at 200 nM incubated for 48 hrs by Annexin V/7AAD staining based flow cytometry (reference value: 2.3 %); type: functional
MV4-11 [16] = test: Induction of apoptosis in human MV4-11 cells assessed as late apoptotic cells at 200 nM incubated for 48 hrs by Annexin V/7AAD staining based flow cytometry (reference value: 1.7 %); type: functional
[17] = system: Venetoclax-resistant MV4-11; test: Induction of apoptosis in human Venetoclax-resistant MV4-11 cells overexpressing Bcl-2 upto 200 nM incubated for 48 hrs by Annexin V/7AAD staining based flow cytometry; type: functional, cell-based
[18] = system: Gilteritinib-resistant MOLM-14; test: Induction of apoptosis in human Gilteritinib-resistant MOLM-14 cells expressing FLT3 F691L mutant upto 200 nM incubated for 48 hrs by Annexin V/7AAD staining based flow cytometry; type: functional, cell-based
MV4-11 [19] = test: Inhibition of cell viability in human MV4-11 cells incubated for 48 hrs in presence of VEN by Alamar blue assay; details: MV4-11, 48 h
MOLM-14 [20] = test: Inhibition of cell viability in human MOLM-14 cells incubated for 48 hrs in presence of VEN by Alamar blue assay; details: MOLM-14, 48 h
MV4-11 [21] = test: Induction of apoptosis in human MV4-11 cells assessed as viable cells at 200 nM incubated for 48 hrs in presence of VEN by Annexin V/7AAD staining based flow cytometry (reference value: 95.6 %); type: functional; details: read-out: Activity
MV4-11 [22] = test: Induction of apoptosis in human MV4-11 cells assessed as early apoptotic cells at 200 nM incubated for 48 hrs in presence of VEN by Annexin V/7AAD staining based flow cytometry (reference value: 2.3 %); type: functional
MV4-11 [23] = test: Induction of apoptosis in human MV4-11 cells assessed as late apoptotic cells at 200 nM incubated for 48 hrs in presence of VEN by Annexin V/7AAD staining based flow cytometry (reference value: 1.7 %); type: functional
cells [24] = details: Homo sapiens, Venetoclax-resistant MV4-11, 48 h
cells [25] = details: Homo sapiens, Gilteritinib-resistant MOLM-14, 48 h

Compound | IC50 (MOLM-14 [2]) | IC50 (MV4-11 [11]) | IC50 [1] | IC50 [3] | other results
CC1(C)CCC(CN2CCN(c3ccc(C(=O)NS(=O)(=O)c4ccc(NCC5CCOCC5)c([N+](=O)[O-])c4)c(Oc4cnc5[nH]ccc5c4)c3)CC2)=C(c2ccc(Cl)cc2)C1 [VENETOCLAX] | 1.7 µM |  | 0.756 µM | 2.01 µM | viability at 0.2 µM (MV4-11 [4]): 0.4%; IC50 (MV4-11 [5]): 0.0026 µM; IC50 [6]: 0.0087 µM; IC50 (MOLM-14 [7]): 0.0164 µM; IC50 [8]: 0.0632 µM; Activity (MV4-11 [9]): 31.1%; Activity (MV4-11 [10]): 66.9%
CCc1nc(C(N)=O)c(Nc2ccc(N3CCC(N4CCN(C(=O)CCCCCCNc5ccc(S(=O)(=O)NC(=O)c6ccc(N7CCN(CC8=C(c9ccc(Cl)cc9)CC(C)(C)CC8)CC7)cc6Oc6cnc7[nH]ccc7c6)cc5[N+](=O)[O-])CC4)CC3)c(OC)c2)nc1NC1CCOCC1 | 3.33 µM | 0.094 µM | 0.907 µM | > 10 µM | 
CCc1nc(C(N)=O)c(Nc2ccc(N3CCC(N4CCN(C)CC4)CC3)c(OC)c2)nc1NC1CCOCC1 [GILTERITINIB] | 0.0257 µM | 0.0147 µM | 0.0537 µM | 0.128 µM | IC50 (MV4-11 [19]): 0.0026 µM; IC50 (MOLM-14 [20]): 0.0164 µM; viability at 0.2 µM (MV4-11 [21]): 0.4%; Activity (MV4-11 [22]): 31.1%; Activity (MV4-11 [23]): 66.9%; IC50 (cells [24]): 0.0087 µM; IC50 (cells [25]): 0.0632 µM
CCc1nc(C(N)=O)c(Nc2ccc(N3CCN(C(=O)CNc4ccc(S(=O)(=O)NC(=O)c5ccc(N6CCN(CC7=C(c8ccc(Cl)cc8)CC(C)(C)CC7)CC6)cc5Oc5cnc6[nH]ccc6c5)cc4[N+](=O)[O-])CC3)c(OC)c2)nc1NC1CCOCC1 | 0.265 µM | 0.0547 µM | 0.162 µM | 1.7 µM | Kd [12]: 0.00425 µM; Kd [13]: 0.063 µM; viability at 0.2 µM (MV4-11 [14]): 52.2%; Activity (MV4-11 [15]): 18.6%; Activity (MV4-11 [16]): 27.9%; Activity [17]: inactive; Activity [18]: inactive
CCc1nc(C(N)=O)c(Nc2ccc(N3CCN(C(=O)CCCCCCNc4ccc(S(=O)(=O)NC(=O)c5ccc(N6CCN(CC7=C(c8ccc(Cl)cc8)CC(C)(C)CC7)CC6)cc5Oc5cnc6[nH]ccc6c5)cc4[N+](=O)[O-])CC3)c(OC)c2)nc1NC1CCOCC1 | 0.531 µM | 0.107 µM | 0.28 µM | 3.28 µM | 

Continued, in another order:

IC50 (MOLM-14 [2]) | IC50 (MV4-11 [11]) | Compound | IC50 [1] | IC50 [3] | other results
> 10 µM | 1.17 µM | CCc1nc(C(N)=O)c(Nc2ccc(N3CCC(N4CCN(C(=O)C5CCN(c6ccc(S(=O)(=O)NC(=O)c7ccc(N8CCN(CC9=C(c%10ccc(Cl)cc%10)CC(C)(C)CC9)CC8)cc7Oc7cnc8[nH]ccc8c7)cc6[N+](=O)[O-])CC5)CC4)CC3)c(OC)c2)nc1NC1CCOCC1 | > 10 µM | > 10 µM | 
1.07 µM | 0.0337 µM | CCc1nc(C(N)=O)c(Nc2ccc(N3CCC(N4CCN(C(=O)CNc5ccc(S(=O)(=O)NC(=O)c6ccc(N7CCN(CC8=C(c9ccc(Cl)cc9)CC(C)(C)CC8)CC7)cc6Oc6cnc7[nH]ccc7c6)cc5[N+](=O)[O-])CC4)CC3)c(OC)c2)nc1NC1CCOCC1 | 0.209 µM | > 10 µM | Kd [12]: 0.00091 µM; Kd [13]: 0.205 µM; viability at 0.2 µM (MV4-11 [14]): 30.7%; Activity (MV4-11 [15]): 25.7%; Activity (MV4-11 [16]): 42.1%; Activity [17]: inactive; Activity [18]: inactive
> 10 µM | 0.968 µM | CCc1nc(C(N)=O)c(Nc2ccc(N3CCN(C(=O)C4CCN(c5ccc(S(=O)(=O)NC(=O)c6ccc(N7CCN(CC8=C(c9ccc(Cl)cc9)CC(C)(C)CC8)CC7)cc6Oc6cnc7[nH]ccc7c6)cc5[N+](=O)[O-])CC4)CC3)c(OC)c2)nc1NC1CCOCC1 | 3.22 µM | > 10 µM | 
